Test results: Sander's compilation of Henry's law constants
Each block holds one molecule with its values, some of them ahead of it.

Experiment: Henry solubility constant Hcp at 298.15 K (mol/(m3 Pa))
[1] = reference: McFall et al. (2020)
[2] = reference: Butler et al. (1935)
[3] = reference: Murphy et al. (1983a)
[4] = reference: Hovorka et al. (2019)
[5] = reference: Straver and de Loos (2005)

Henry solubility constant Hcp (reference: Kim et al. (2000)): 1400
Compound: CCCCOCCOCCO [3,6-dioxa-1-decanol]

Henry solubility constant Hcp [1]: 12000
Compound: COc1cc(CCC(C)=O)ccc1O [zingerone]

Compound: CCC(C)(C)O [2-methyl-2-butanol]
Henry solubility constant Hcp [2]: 0.71
Henry solubility constant Hcp (reference: Fenclová et al. (2010)): 0.72

Compound: CCCC=O [butanal]
Henry solubility constant Hcp (reference: Buttery et al. (1965)): 0.064
Henry solubility constant Hcp (reference: Ji and Evans (2007)): 0.089

Compound: CNC [dimethylamine]
Henry solubility constant Hcp (reference: Christie and Crisp (1967)): 0.56

Compound: Clc1ccccc1-c1c(Cl)cccc1Cl [2,2',6-trichlorobiphenyl]
Henry solubility constant Hcp [3]: 0.047

Compound: OCC(F)(F)F [2,2,2-trifluoroethanol]
Henry solubility constant Hcp (reference: Chen et al. (2003)): 0.47
Henry solubility constant Hcp (reference: Rochester and Symonds (1973)): 0.58

Compound: Cc1ccc(N)cc1C [3,4-dimethylbenzenamine]
Henry solubility constant Hcp (reference: Jayasinghe et al. (1992)): 5.3

Compound: COc1cc(CC(C)=O)ccc1O [guaiacylacetone]
Henry solubility constant Hcp [1]: 12000

Compound: C[CH2][Pb]([CH2]C)([CH2]C)[CH2]C [tetraethyl lead]
Henry solubility constant Hcp (reference: Feldhake and Stevens (1963)): 1.3e-05

Henry solubility constant Hcp [4]: 0.093
Compound: CC(=O)C(C)C [3-methyl-2-butanone]

Compound: Clc1cccc(-c2ccccc2Cl)c1 [2,3'-dichlorobiphenyl]
Henry solubility constant Hcp [3]: 0.047

Compound: CC(=O)O[O] [peroxyacetyl radical]
Henry solubility constant Hcp (reference: Villalta et al. (1996)): < 0.00099

Henry solubility constant Hcp (reference: Nguyen (2013)): 1000
Compound: NCCCCCCN [1,6-hexanediamine]

Henry solubility constant Hcp (reference: Chai et al. (2005)): 0.086
Henry solubility constant Hcp [4]: 0.099
Henry solubility constant Hcp [5]: 0.11
Compound: CCCCC(C)=O [2-hexanone]

Compound: CC(=O)C(F)(F)F [1,1,1-trifluoro-2-propanone]
Henry solubility constant Hcp (reference: Betterton (1991)): 1.4

Henry solubility constant Hcp (reference: Copolovici and Niinemets (2005)): 0.00035
Henry solubility constant Hcp (reference: Schuhfried et al. (2015)): 0.00038
Compound: C=C(C)[C@H]1CC=C(C)CC1 [(R)-1-methyl-4-(1-methylethenyl)-cyclohexene]

Compound: ClC(Cl)=C(c1ccc(Cl)cc1)c1ccc(Cl)cc1 [1,1-dichloro-2,2-bis-(4-chlorophenyl)-ethene]
Henry solubility constant Hcp (reference: Jantunen and Bidleman (2006)): 0.029

Henry solubility constant Hcp (reference: Hawthorne et al. (1985)): 0.82
Compound: O=C1CCCC1 [cyclopentanone]

Compound: ClNCl [dichloramine]
Henry solubility constant Hcp (reference: Holzwarth et al. (1984)): 0.28

Compound: CCCO [1-propanol]
Henry solubility constant Hcp (reference: Burnett (1963)): 1.6
Henry solubility constant Hcp [2]: 1.4
Henry solubility constant Hcp (reference: Gupta et al. (2000)): 1.2
Henry solubility constant Hcp (reference: Richon et al. (1985)): 1.8
Henry solubility constant Hcp (reference: Snider and Dawson (1985)): 1.3
Henry solubility constant Hcp [5]: 1.5
Henry solubility constant Hcp (reference: Vitenberg and Dobryakov (2008)): 1.5

Henry solubility constant Hcp (reference: Lindinger et al. (1998)): 0.0041
Compound: C=CCSCC=C [3,3'-thiobis-1-propene]

Henry solubility constant Hcp (reference: Aprea et al. (2007)): 0.014
Compound: CCCCCCCCCC(=O)OCC [ethyl decanoate]

Henry solubility constant Hcp (reference: Heidman et al. (1985)): 3.1e-06
Henry solubility constant Hcp (reference: Jönsson et al. (1982)): 2.9e-06
Henry solubility constant Hcp (reference: Park et al. (1997)): 3.3e-06
Compound: CCCCCCCC [octane]

Compound: Clc1ccccc1-c1ccccc1Cl [2,2'-dichlorobiphenyl]
Henry solubility constant Hcp [3]: 0.045

Henry solubility constant Hcp (reference: Roberts and Pollien (1997)): 0.81
Compound: CCc1ncc(C)nc1CC [2,3-diethyl-5-methylpyrazine]

Compound: C=CCN=C=S [allyl isothiocyanate]
Henry solubility constant Hcp (reference: Souchon et al. (2004)): 0.021

Compound: CCCOC=O [propyl methanoate]
Henry solubility constant Hcp (reference: Kutsuna et al. (2005)): 0.026

Henry solubility constant Hcp (reference: Kawamoto and Urano (1989)): 18
Compound: O=C1OCc2c(Cl)c(Cl)c(Cl)c(Cl)c21 [4,5,6,7-tetrachlorophthalide]

Henry solubility constant Hcp [1]: 410
Compound: CCOCc1ccc(O)c(OC)c1 [vanillyl ethyl ether]

Henry solubility constant Hcp (reference: Lei et al. (2007)): 0.36
Henry solubility constant Hcp (reference: Shunthirasingham et al. (2013)): 0.38
Compound: CCCCCCCO [1-heptanol]

Compound: CCc1cccc2ccccc12 [1-ethylnaphthalene]
Henry solubility constant Hcp (reference: Schwarz and Wasik (1977)): 0.022

Henry solubility constant Hcp (reference: Wu et al. (2022a)): 0.15
Compound: CCCCC(CC)CO (stereo not drawn) [2-ethyl-1-hexanol]

Henry solubility constant Hcp (reference: Pollien et al. (2003)): 0.023
Compound: CCC(C)C=O (stereo not drawn) [2-methylbutanal]

Compound: CC(C)(Cl)Cl [2,2-dichloropropane]
Henry solubility constant Hcp (reference: Bakierowska and Trzeszczyński (2003)): 0.00081

Compound: [CH3][Hg+].[OH-] [hydroxymethylmercury]
Henry solubility constant Hcp (reference: Iverfeldt and Persson (1985)): 980

Henry solubility constant Hcp (reference: Dohányosová et al. (2004)): 6.9e-05
Compound: C1CCCCCCC1 [cyclooctane]

Compound: Clc1cc(-c2ccc(Cl)c(Cl)c2Cl)cc(Cl)c1Cl [2,3,3',4,4',5'-hexachlorobiphenyl]
Henry solubility constant Hcp [3]: 0.017
